# Reference: paper PMC5248581 (PeerJ, 2017)
# What was measured:
# male Sprague-Dawley rats [1] = system: male Sprague-Dawley rats
# Method: All surgical and experimental procedures were reviewed and approved by the Animal Care and Handling Committee of Laval University, in accordance with the Canadian Council on Animal Care (file no. 2012-223). Experiments were performed on male Sprague-Dawley rats (300–375 g) purchased from Charles River Laboratories (St-Constant, Qc, Canada). Only animals of the male gender have been studied to be consistent with related and recently published data ([Jean et al., 2016a]). The rats were housed in a temperature-controlled room (22 ± 1 °C) on a 12 h/12 h light-dark cycle (lights on at 0600) and had free access to normal chow diet and tap water. They were allowed to acclimate to their environmental conditions for one week prior to being studied. At the end of the acclimation period, the rats were anesthetised with sodium pentobarbital (50 mg kg^−1, i.p., supplemented as required) and had one catheter implanted into the right jugular vein (for intravenous ( i.v.) injection) and one into the left femoral artery (for direct and continuous measurement of blood pressure and heart rate as previously described, [Jean et al., 2016a]). In some experiments, a miniaturized pulsed Doppler flow probe ([Haywood et al., 1981]) was implanted around the distal abdominal aorta (below the level of the ileocaecal artery) through a midline abdominal incision to monitor changes in hindquarter hemodynamic, according to the method previously developed by [Gardiner & Bennett (1988)] and as previously described ([Bachelard et al., 1992]; [Jean et al., 2016a]). Experiments started at least 30 min following the end of surgery in anesthetised rats.
# Baseline heart rate and phasic and mean arterial blood pressure were recorded over a period of 15 min in anesthetized rats. […] Peptides were dissolved in isotonic saline (0.9% NaCl) containing 0.1% BSA to prevent the adsorption of peptide to the glassware and plastic surfaces. All i.v. injections were given as 100 µl boluses which were washed in with a further 100 µl of saline (the dead space of the catheter). Only one peptide was tested per group of rats and each injection started with saline-BSA 0.1% followed by the lowest dose of peptide. The next dose was administered once all recorded cardiovascular parameters had returned to baseline after the previous injection (usually 2–10 min). At the end of the experiments each animal was euthanized with an overdose of sodium pentobarbital (240 mg/kg, i.v.).
# In these experiments, enalaprilat was intravenously administered as bolus (0.1 mg/kg, 0.1 ml) following a 10 min period of baseline measurements of heart rate and blood pressure. Fifteen minutes later, a dose–response curve to MK was obtained, as described above. […] In these experiments, icatibant was intravenously administered as bolus (25 µg/kg, 0.1 ml) 15 min before the i.v. injection of increasing doses of MK, as above. […] In these experiments, pyrilamine was intravenously administered as bolus (5 mg/kg, 0.1 ml) 15 min before the i.v. injection of increasing doses of MK, as above.
# Results are presented as means ± s.e.m. Radioligand binding data were fitted by nonlinear regression to a one-site competition equation using a least-square method (Prism 5.0; GraphPad Software Inc., San Diego, CA, USA) and IC50 values calculated from this procedure. The same computer program was used to draw concentration-effect curves (least square fitting of sigmoidal dose–response equation with variable slope) and to derive contractile EC50 values. Data describing baseline values of heart rate and mean arterial blood pressure and hypotensive responses to peptides in anesthetized rats were assessed by using one-way analysis of variance (ANOVA) followed by the Dunnett’s test (repeated comparison with a common control).
# MRGPRX2 (human sequence) = conditions: ref McNeil et al., 2015; cited from earlier work
# From the text: MRGPRX2 has been recently described as a promiscuous receptor for cationic polymers and drugs that produce direct mast cell degranulation ([McNeil et al., 2015]). […] The contractile effect of MK on the human umbilical vein and ...
# male Sprague-Dawley rats [2] = experiment: Acute hindquarter hemodynamic effects in anesthetized rats; type: in vivo, rat; conditions: icatibant 25 µg/kg i.v., 15 min before
# Method: Before each experiment, a 30-min stabilization period was allowed, during which continuous recording of heart rate, phasic and mean blood pressure and phasic and mean Doppler shift signals from the hindquarter probe were made in anesthetized rats, using the Biopac data acquisition and analysis system previously described ([Jean et al., 2016a]). Then, a first group of rats (n = 8) received successive i.v. injections of peptide vehicle (saline-BSA 0.1%), BK (6.4 µg/kg), and MK (1.6 µg/kg). […] Further experiments were made in a second group of rats (n = 6) pretreated with the B2R antagonist, icatibant. […] At the end of the experiments the rats were euthanized with an overdose of anesthetic (pentobarbital 240 mg/kg, i.v.).
# Results are presented as means ± s.e.m.
# [3] = target: T1, human isolated umbilical vein (BK B2R; histamine H1R) (Homo sapiens, UniProt P30411); conditions: antagonist 1 µM, 30 min before MK
# T1 sequence (P30411 1-391): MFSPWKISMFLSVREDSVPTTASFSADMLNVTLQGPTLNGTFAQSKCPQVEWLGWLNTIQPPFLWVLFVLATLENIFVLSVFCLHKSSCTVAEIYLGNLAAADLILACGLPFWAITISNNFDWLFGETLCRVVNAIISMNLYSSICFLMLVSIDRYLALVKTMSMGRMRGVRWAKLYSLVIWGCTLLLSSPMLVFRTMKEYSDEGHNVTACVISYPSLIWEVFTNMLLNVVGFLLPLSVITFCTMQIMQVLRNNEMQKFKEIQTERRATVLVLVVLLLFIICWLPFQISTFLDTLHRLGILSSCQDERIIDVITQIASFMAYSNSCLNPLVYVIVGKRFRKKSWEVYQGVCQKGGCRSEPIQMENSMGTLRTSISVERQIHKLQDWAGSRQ
substance,measurement,setting,value
"D-Arg-[Hyp^3, Thi^5, D-Tic^7, Oic^8] bradykinin [icatibant]",Basal mean arterial blood pressure after pre-treatment,"male Sprague-Dawley rats [1]; 15 min after i.v., enalaprilat 0.1 mg/kg n=6, icatibant 25 µg/kg n=6, pyrilamine 5 mg/kg n=16, means ± s.e.m., control 96.5 ± 2.5",90.3 ± 4.6
same,Basal heart rate after pre-treatment,"male Sprague-Dawley rats [1]; 15 min after i.v., enalaprilat 0.1 mg/kg n=6, icatibant 25 µg/kg n=6, pyrilamine 5 mg/kg n=16, means ± s.e.m., control 351 ± 10, * P < 0.01 vs control",362 ± 28
same,effect of pretreatment on hypotensive effect of MK,"male Sprague-Dawley rats [1]; enalaprilat 0.1 mg/kg, icatibant 25 µg/kg, pyrilamine 5 mg/kg i.v., 15 min before MK",abated
same,MRGPRX2-activating concentration over B2R-antagonizing concentration,MRGPRX2 (human sequence),5 to 6 orders of magnitude
same,effect of icatibant on cardiovascular responses to BK and MK,male Sprague-Dawley rats [2],all significantly abated
same,effect of icatibant on cardiovascular responses to BK and MK,male Sprague-Dawley rats [2]; listed as Icatibant,significantly abated all types of responses to the 2 kinins
same,effect of receptor antagonist on MK-induced contraction,[3],profound inhibitory effect
